Assay [1] has as its target Carbonic anhydrase 12 (Homo sapiens, UniProt O43570). The assay can be described thus: Inhibition of human catalytic domain of carbonic anhydrase 12 preincubated for 15 mins by CO2 hydration stopped-flow assay.
Assay [2] addresses Carbonic anhydrase 9 (Homo sapiens, UniProt Q16790). Kind of assay: Inhibition of human catalytic domain of carbonic anhydrase 9 preincubated for 15 mins by CO2 hydration stopped-flow assay.
Assay [3] has as its target Carbonic anhydrase 2 (Homo sapiens, UniProt P00918). The assay can be described thus: Inhibition of human recombinant carbonic anhydrase 2 preincubated for 15 mins by CO2 hydration stopped-flow assay.
For assay [4], the species on record is Homo sapiens. The assay can be described thus: Selectivity ratio of Ki for human carbonic anhydrase 1 to Ki for human carbonic anhydrase 9.
The species named for assay [5] is Homo sapiens. Kind of assay: Selectivity ratio of Ki for human carbonic anhydrase 2 to Ki for human carbonic anhydrase 9.
Assay [6] addresses Carbonic anhydrase 1 (Homo sapiens, UniProt P00915). The assay can be described thus: Inhibition of human recombinant carbonic anhydrase 1 preincubated for 15 mins by CO2 hydration stopped-flow assay.

Sequence of Carbonic anhydrase 12 (O43570 whole entry, the tested form may be a part): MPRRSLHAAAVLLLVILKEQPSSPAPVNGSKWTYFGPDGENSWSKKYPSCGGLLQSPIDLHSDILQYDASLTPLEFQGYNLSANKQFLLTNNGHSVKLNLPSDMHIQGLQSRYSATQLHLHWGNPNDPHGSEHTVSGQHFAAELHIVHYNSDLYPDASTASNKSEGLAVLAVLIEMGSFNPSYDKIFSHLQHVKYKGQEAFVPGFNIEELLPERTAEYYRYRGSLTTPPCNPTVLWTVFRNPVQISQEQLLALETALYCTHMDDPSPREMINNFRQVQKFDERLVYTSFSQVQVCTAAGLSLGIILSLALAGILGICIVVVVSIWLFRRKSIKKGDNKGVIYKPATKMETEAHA
Sequence of Carbonic anhydrase 1 (P00915 whole entry): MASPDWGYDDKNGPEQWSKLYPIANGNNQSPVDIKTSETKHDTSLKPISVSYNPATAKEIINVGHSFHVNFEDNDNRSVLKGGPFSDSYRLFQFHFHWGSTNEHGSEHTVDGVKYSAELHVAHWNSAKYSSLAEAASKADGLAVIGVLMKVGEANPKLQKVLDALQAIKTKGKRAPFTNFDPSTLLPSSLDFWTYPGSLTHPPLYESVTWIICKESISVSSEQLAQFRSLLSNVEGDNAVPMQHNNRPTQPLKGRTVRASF

Take `C=CCNc1ccc(S(N)(=O)=O)cc1`: the inhibition constant (Ki) in assay [1] amounted to 966 nM; in assay [2], 1400 nM; in assay [3] it was 2340 nM; in assay [6], 2080 nM. Also, the Ratio Ki in assay [4] is 1.5; in assay [5], 1.7.
Consider `Nc1ccc(S(=O)(=O)NCCC(F)Cl)cc1` (configuration not stated), for which the Ki stood at 1950 nM in assay [1], 2470 nM in assay [2], 799 nM in assay [3] and 6760 nM in assay [6]. Further, the Ratio Ki is 2.7 in assay [4] and 0.3 in assay [5].
As to `CCCNS(=O)(=O)c1ccc(N)cc1`, the Ki worked out at 1840 nM in assay [1], 2080 nM in assay [2], 3460 nM in assay [3] and 5140 nM in assay [6]. Also, the Ratio Ki in assay [4] amounted to 2.5; in assay [5], 1.7.
Take `NS(=O)(=O)c1ccc2c(c1)CCCN2`: the inhibitory constant (Ki) in assay [1] was 80.7 nM; in assay [2] it was 50.5 nM; in assay [3] it was 78.9 nM; in assay [6], 192 nM. Moreover, the Ratio Ki was determined as 3.8 in assay [4] and 1.6 in assay [5].
On to `Nc1ccc(S(=O)(=O)NCCC(F)F)cc1`, for which the Ki in assay [1] worked out at 1140 nM; in assay [2] it was 2120 nM; in assay [3], 4230 nM; in assay [6], 4220 nM. Moreover, the Ratio Ki in assay [4] and in assay [5] was 2 throughout.
With `CC(F)(F)CNS(=O)(=O)c1ccc(N)cc1`, the Ki in assay [1] was found to be 79.4 nM; in assay [2] it was 47 nM; in assay [3], 85.3 nM; in assay [6] it was 151 nM. In addition, the Ratio Ki was 3.2 in assay [4] and 1.8 in assay [5].
In the case of `CC1CN(C)S(=O)(=O)c2ccc(N)cc21` (configuration not stated), the Ki came to 298 nM in assay [1], 136 nM in assay [2], 431 nM in assay [3] and 637 nM in assay [6]. The Ratio Ki in assay [4] came out at 4.7; in assay [5], 3.2.
With `CC(=O)Nc1ccc(S(=O)(=O)NCC(C)F)cc1` (configuration not stated), the inhibitory constant (Ki) in assay [1] came out at 1100 nM; in assay [2], 4400 nM; in assay [3], 4600 nM; in assay [6] it was 4800 nM. Moreover, the values for the Ratio Ki in assay [4] and in assay [5] were 1.1 and 1, respectively.
Regarding `CC(F)(Cl)CNS(=O)(=O)c1ccc(N)cc1` (configuration not stated), the Ki came to 1520 nM in assay [1], 2470 nM in assay [2], 1400 nM in assay [3] and 5180 nM in assay [6]. For the same compound, the Ratio Ki in assay [4] was 2.1; in assay [5], 0.6.
Take `NS(=O)(=O)c1ccc(Nc2nc(Cl)nc(NCCO)n2)cc1`: the Ratio Ki was determined as 1460 in assay [4] and 23.1 in assay [5].
As for `Cc1ccc(S(=O)(=O)Nc2ccccc2)cc1`, the Ki in assay [3] is 395 nM; in assay [6], 419 nM.
Consider `CC(C)(F)CNS(=O)(=O)c1ccc(N)cc1`, for which the Ki in assay [1] turned out to be 39.7 nM; in assay [3], 75 nM; in assay [6] it was 174 nM. Further, the Ratio Ki in assay [4] was found to be 2.1; in assay [5], 0.9.
For `C=C(C)CNS(=O)(=O)c1ccc(N)cc1`, the Ki in assay [1] is 1280 nM; in assay [2] it was 3460 nM; in assay [3], 4710 nM; in assay [6], 7140 nM. Also, the figures for the Ratio Ki in assay [4] and in assay [5] were 2.1 and 1.4, respectively.
As for `C=C(Cl)CNS(=O)(=O)c1ccc(N)cc1`, the Ki in assay [1] amounted to 96 nM; in assay [2], 90 nM; in assay [3], 5180 nM; in assay [6] it was 5630 nM. Also, the Ratio Ki was found to be 62 in assay [4] and 57.5 in assay [5].
For `CC(F)CNc1ccc(S(N)(=O)=O)cc1` (configuration not stated), the Ki in assay [1] came to 73.9 nM; in assay [2], 43.5 nM; in assay [3], 57.6 nM; in assay [6], 175 nM. Moreover, the results for the Ratio Ki in assay [4] and in assay [5] were 4 and 1.3, respectively.
`C=C(Cl)CN(CC(=C)Cl)S(=O)(=O)c1ccc(N)cc1`: the Ki in assay [1] turned out to be 79.8 nM; in assay [2] it was 73.2 nM; in assay [3], 5000 nM; in assay [6] it was 6800 nM. Also, the Ratio Ki in assay [4] worked out at 92.8; in assay [5], 68.2.

The record behind these values is ChEMBL document CHEMBL2331479, “Superacid synthesis of halogen containing N-substituted-4-aminobenzene sulfonamides: new selective tumor-associated carbonic anhydrase inhibitors” (Bioorg Med Chem, 2013).
